Converted amounts (≈) assume the structure as drawn.
Columns and labels:
Type in all cases: functional
Haemophilus influenzae [1] = experiment: Antibacterial activity against Haemophilus influenzae isolate 285 by agar dilution method
Staphylococcus aureus [2] = experiment: Antibacterial activity against Staphylococcus aureus ATCC 25923 by agar dilution method in presence of human plasma; conditions: ATCC 25923, Plasma
Haemophilus influenzae [3] = experiment: Antibacterial activity against Haemophilus influenzae isolate 280 by agar dilution method
Haemophilus influenzae [4] = experiment: Antibacterial activity against Haemophilus influenzae isolate 282 by agar dilution method
Enterococcus [5] = experiment: Antibacterial activity against vancomycin-sensitive Enterococcus by agar dilution method
Staphylococcus aureus [6] = experiment: Antibacterial activity against Staphylococcus aureus ATCC 25923 by agar dilution method
Staphylococcus aureus [7] = experiment: Antibacterial activity against methicillin-resistant Staphylococcus aureus by agar dilution method
Haemophilus influenzae [8] = experiment: Antibacterial activity against Haemophilus influenzae isolate 283 by agar dilution method
Escherichia coli = experiment: Antibacterial activity against Escherichia coli ATCC 25922 by agar dilution method
Streptococcus pneumoniae = experiment: Antibacterial activity against Streptococcus pneumoniae by agar dilution method
Staphylococcus [9] = experiment: Antibacterial activity against methicillin resistant coagulase-negative Staphylococcus by agar dilution method
Staphylococcus [10] = experiment: Antibacterial activity against methicillin-sensitive coagulase-negative Staphylococcus by agar dilution method
Haemophilus influenzae [11] = experiment: Antibacterial activity against Haemophilus influenzae ATCC 49247 by agar dilution method
Moraxella catarrhalis = experiment: Antibacterial activity against Moraxella catarrhalis by agar dilution method
Enterococcus [12] = experiment: Antibacterial activity against vancomycin-resistant Enterococcus by agar dilution method
Staphylococcus aureus [13] = experiment: Antibacterial activity against methicillin-susceptible Staphylococcus aureus by agar dilution method

Cc1cn(C[C@H]2CN(c3ccc(N4CCN(C(=O)CC5CC6CCC5C6)CC4)c(F)c3)C(=O)O2)nn1 (stereo partly drawn)
MIC (Haemophilus influenzae [1]): > 64 µg/mL
MIC (Staphylococcus aureus [2]): > 64 µg/mL
MIC (Haemophilus influenzae [3]): > 64 µg/mL
MIC (Haemophilus influenzae [4]): > 64 µg/mL
MIC (Enterococcus [5]): 2 µg/mL (≈ 4.03 µM)
MIC (Staphylococcus aureus [6]): 4 µg/mL (≈ 8.05 µM)
MIC (Staphylococcus aureus [7]): 4 µg/mL (≈ 8.05 µM)
MIC (Haemophilus influenzae [8]): > 64 µg/mL
MIC (Escherichia coli): > 64 µg/mL
MIC (Streptococcus pneumoniae): 16 µg/mL (≈ 32.2 µM)
MIC (Staphylococcus [9]): 2 µg/mL (≈ 4.03 µM)
MIC (Staphylococcus [10]): 2 µg/mL (≈ 4.03 µM)
MIC (Haemophilus influenzae [11]): > 64 µg/mL
MIC (Moraxella catarrhalis): 64 µg/mL (≈ 129 µM)
MIC (Enterococcus [12]): 2 µg/mL (≈ 4.03 µM)
MIC (Staphylococcus aureus [13]): 2 µg/mL (≈ 4.03 µM)

Cc1cn(C[C@H]2CN(c3ccc(N4CCN(C(=O)C(Cl)(Cl)Cl)CC4)c(F)c3)C(=O)O2)nn1
MIC (Haemophilus influenzae [1]): > 64 µg/mL
MIC (Staphylococcus aureus [2]): 16 µg/mL
MIC (Haemophilus influenzae [3]): > 64 µg/mL
MIC (Haemophilus influenzae [4]): > 64 µg/mL
MIC (Enterococcus [5]): 1 µg/mL (≈ 1.98 µM)
MIC (Staphylococcus aureus [6]): 1 µg/mL (≈ 1.98 µM)
MIC (Staphylococcus aureus [7]): 1 µg/mL (≈ 1.98 µM)
MIC (Haemophilus influenzae [8]): > 64 µg/mL
MIC (Escherichia coli): > 64 µg/mL
MIC (Streptococcus pneumoniae): 4 µg/mL (≈ 7.91 µM)
MIC (Staphylococcus [9]): 1 µg/mL (≈ 1.98 µM)
MIC (Staphylococcus [10]): 1 µg/mL (≈ 1.98 µM)
MIC (Haemophilus influenzae [11]): > 64 µg/mL
MIC (Moraxella catarrhalis): 32 µg/mL (≈ 63.3 µM)
MIC (Enterococcus [12]): 1 µg/mL (≈ 1.98 µM)
MIC (Staphylococcus aureus [13]): 1 µg/mL (≈ 1.98 µM)

Cc1cn(C[C@H]2CN(c3ccc(N4CCN(C(=O)C5CCCC5)CC4)c(F)c3)C(=O)O2)nn1
MIC (Haemophilus influenzae [1]): 32 µg/mL (≈ 70.1 µM)
MIC (Staphylococcus aureus [2]): 32 µg/mL
MIC (Haemophilus influenzae [3]): 32 µg/mL (≈ 70.1 µM)
MIC (Haemophilus influenzae [4]): 32 µg/mL (≈ 70.1 µM)
MIC (Enterococcus [5]): 2 µg/mL (≈ 4.38 µM)
MIC (Staphylococcus aureus [6]): 4 µg/mL (≈ 8.76 µM)
MIC (Staphylococcus aureus [7]): 2 µg/mL (≈ 4.38 µM)
MIC (Haemophilus influenzae [8]): 32 µg/mL (≈ 70.1 µM)
MIC (Escherichia coli): > 64 µg/mL
MIC (Streptococcus pneumoniae): 4 µg/mL (≈ 8.76 µM)
MIC (Staphylococcus [9]): 2 µg/mL (≈ 4.38 µM)
MIC (Staphylococcus [10]): 2 µg/mL (≈ 4.38 µM)
MIC (Haemophilus influenzae [11]): 32 µg/mL (≈ 70.1 µM)
MIC (Moraxella catarrhalis): 32 µg/mL (≈ 70.1 µM)
MIC (Enterococcus [12]): 2 µg/mL (≈ 4.38 µM)
MIC (Staphylococcus aureus [13]): 2 µg/mL (≈ 4.38 µM)

Cc1cn(C[C@H]2CN(c3ccc(N4CCN(C(=O)Cc5ccccc5)CC4)c(F)c3)C(=O)O2)nn1
MIC (Haemophilus influenzae [1]): > 64 µg/mL
MIC (Staphylococcus aureus [2]): > 64 µg/mL
MIC (Haemophilus influenzae [3]): > 64 µg/mL
MIC (Haemophilus influenzae [4]): > 64 µg/mL
MIC (Enterococcus [5]): 2 µg/mL (≈ 4.18 µM)
MIC (Staphylococcus aureus [6]): 4 µg/mL (≈ 8.36 µM)
MIC (Staphylococcus aureus [7]): 2 µg/mL (≈ 4.18 µM)
MIC (Haemophilus influenzae [8]): > 64 µg/mL
MIC (Escherichia coli): > 64 µg/mL
MIC (Streptococcus pneumoniae): 2 µg/mL (≈ 4.18 µM)
MIC (Staphylococcus [9]): 2 µg/mL (≈ 4.18 µM)
MIC (Staphylococcus [10]): 2 µg/mL (≈ 4.18 µM)
MIC (Haemophilus influenzae [11]): > 64 µg/mL
MIC (Moraxella catarrhalis): 16 µg/mL (≈ 33.4 µM)
MIC (Enterococcus [12]): 1 µg/mL (≈ 2.09 µM)
MIC (Staphylococcus aureus [13]): 2 µg/mL (≈ 4.18 µM)

CCCCCC(=O)N1CCN(c2ccc(N3C[C@H](Cn4cc(C)nn4)OC3=O)cc2F)CC1
MIC (Haemophilus influenzae [1]): > 64 µg/mL
MIC (Staphylococcus aureus [2]): > 64 µg/mL
MIC (Haemophilus influenzae [3]): > 64 µg/mL
MIC (Haemophilus influenzae [4]): > 64 µg/mL
MIC (Enterococcus [5]): 2 µg/mL (≈ 4.36 µM)
MIC (Staphylococcus aureus [6]): 4 µg/mL (≈ 8.72 µM)
MIC (Staphylococcus aureus [7]): 4 µg/mL (≈ 8.72 µM)
MIC (Haemophilus influenzae [8]): > 64 µg/mL
MIC (Escherichia coli): > 64 µg/mL
MIC (Streptococcus pneumoniae): 8 µg/mL (≈ 17.4 µM)
MIC (Staphylococcus [9]): 2 µg/mL (≈ 4.36 µM)
MIC (Staphylococcus [10]): 2 µg/mL (≈ 4.36 µM)
MIC (Haemophilus influenzae [11]): > 64 µg/mL
MIC (Moraxella catarrhalis): > 64 µg/mL
MIC (Enterococcus [12]): 2 µg/mL (≈ 4.36 µM)
MIC (Staphylococcus aureus [13]): 2 µg/mL (≈ 4.36 µM)

Cc1cn(C[C@H]2CN(c3ccc(N4CCN(C(=O)C(Cl)Cl)CC4)c(F)c3)C(=O)O2)nn1
MIC (Haemophilus influenzae [1]): 32 µg/mL (≈ 67.9 µM)
MIC (Staphylococcus aureus [2]): 8 µg/mL
MIC (Haemophilus influenzae [3]): 32 µg/mL (≈ 67.9 µM)
MIC (Haemophilus influenzae [4]): 32 µg/mL (≈ 67.9 µM)
MIC (Enterococcus [5]): 1 µg/mL (≈ 2.12 µM)
MIC (Staphylococcus aureus [6]): 2 µg/mL (≈ 4.24 µM)
MIC (Staphylococcus aureus [7]): 1 µg/mL (≈ 2.12 µM)
MIC (Haemophilus influenzae [8]): 64 µg/mL (≈ 136 µM)
MIC (Escherichia coli): > 64 µg/mL
MIC (Streptococcus pneumoniae): 1 µg/mL (≈ 2.12 µM)
MIC (Staphylococcus [9]): 0.5 µg/mL (≈ 1.06 µM)
MIC (Staphylococcus [10]): 1 µg/mL (≈ 2.12 µM)
MIC (Haemophilus influenzae [11]): 64 µg/mL (≈ 136 µM)
MIC (Moraxella catarrhalis): 16 µg/mL (≈ 33.9 µM)
MIC (Enterococcus [12]): 1 µg/mL (≈ 2.12 µM)
MIC (Staphylococcus aureus [13]): 1 µg/mL (≈ 2.12 µM)

Cc1cn(C[C@H]2CN(c3ccc(N4CCN(C(=O)C(C)C)CC4)c(F)c3)C(=O)O2)nn1
MIC (Haemophilus influenzae [1]): > 64 µg/mL
MIC (Staphylococcus aureus [2]): 16 µg/mL
MIC (Haemophilus influenzae [3]): > 64 µg/mL
MIC (Haemophilus influenzae [4]): > 64 µg/mL
MIC (Enterococcus [5]): 1 µg/mL (≈ 2.32 µM)
MIC (Staphylococcus aureus [6]): 1 µg/mL (≈ 2.32 µM)
MIC (Staphylococcus aureus [7]): 0.5 µg/mL (≈ 1.16 µM)
MIC (Haemophilus influenzae [8]): > 64 µg/mL
MIC (Escherichia coli): > 64 µg/mL
MIC (Streptococcus pneumoniae): 2 µg/mL (≈ 4.65 µM)
MIC (Staphylococcus [9]): 0.5 µg/mL (≈ 1.16 µM)
MIC (Staphylococcus [10]): 0.5 µg/mL (≈ 1.16 µM)
MIC (Haemophilus influenzae [11]): > 64 µg/mL
MIC (Moraxella catarrhalis): 16 µg/mL (≈ 37.2 µM)
MIC (Enterococcus [12]): 0.5 µg/mL (≈ 1.16 µM)
MIC (Staphylococcus aureus [13]): 1 µg/mL (≈ 2.32 µM)

Cc1cn(C[C@H]2CN(c3ccc(N4CCN(C(=O)/C=C/c5ccccc5)CC4)c(F)c3)C(=O)O2)nn1
MIC (Haemophilus influenzae [1]): > 64 µg/mL
MIC (Staphylococcus aureus [2]): > 64 µg/mL
MIC (Haemophilus influenzae [3]): > 64 µg/mL
MIC (Haemophilus influenzae [4]): > 64 µg/mL
MIC (Enterococcus [5]): 8 µg/mL (≈ 16.3 µM)
MIC (Staphylococcus aureus [6]): 16 µg/mL (≈ 32.6 µM)
MIC (Staphylococcus aureus [7]): 8 µg/mL (≈ 16.3 µM)
MIC (Haemophilus influenzae [8]): > 64 µg/mL
MIC (Escherichia coli): > 64 µg/mL
MIC (Streptococcus pneumoniae): 8 µg/mL (≈ 16.3 µM)
MIC (Staphylococcus [9]): 8 µg/mL (≈ 16.3 µM)
MIC (Staphylococcus [10]): 8 µg/mL (≈ 16.3 µM)
MIC (Haemophilus influenzae [11]): > 64 µg/mL
MIC (Moraxella catarrhalis): 64 µg/mL (≈ 130 µM)
MIC (Enterococcus [12]): 8 µg/mL (≈ 16.3 µM)
MIC (Staphylococcus aureus [13]): 16 µg/mL (≈ 32.6 µM)

From ChEMBL document CHEMBL1153012, “Synthesis and antibacterial activity of novel 5-(4-methyl-1H-1,2,3-triazole) methyl oxazolidinones” (2009)
